Source: the NIST ThermoML archive (doi:10.1016/j.fluid.2005.03.032)

Test: xn = mol fraction of the nth substance listed
Settings: 310.95 K; for viscosity: Capillary tube (Ostwald / Ubbelohde) method; for mass density: Vibrating tube method

CCCC [butane] + C
Gas, x2 = 0.736
Settings	mass density [kg/m3]	viscosity [mPa·s]
13790 kPa	265	0.0305
20680 kPa	329	0.0406

C [methane] + CCCCCCCCCC
Settings	viscosity [mPa·s]
34610 kPa, Gas, x1 = 0.9514	0.0386
34610 kPa, Liquid, x1 = 0.8064	0.12
35160 kPa, Gas, x1 = 0.9514	0.0396
35160 kPa, Liquid, x1 = 0.8064	0.12
35850 kPa, Gas, x1 = 0.9514	0.0403
35850 kPa, Liquid, x1 = 0.8064	0.121
36230 kPa, Liquid, x1 = 0.8609	0.105
36300 kPa, Liquid, x1 = 0.8609	0.102
36370 kPa, Liquid, x1 = 0.8609	0.1
36540 kPa, Gas, x1 = 0.9514	0.041
36540 kPa, Liquid, x1 = 0.8064	0.122
36540 kPa, Liquid, x1 = 0.8609	0.096
36890 kPa, Liquid, x1 = 0.8609	0.095
37230 kPa, Gas, x1 = 0.9514	0.0416
37230 kPa, Liquid, x1 = 0.8064	0.123
37230 kPa, Liquid, x1 = 0.8609	0.095
37580 kPa, Liquid, x1 = 0.8609	0.095
37920 kPa, Gas, x1 = 0.9514	0.042
37920 kPa, Liquid, x1 = 0.8064	0.124
37920 kPa, Liquid, x1 = 0.8609	0.096
